{
  "source": "paper PMC3871271",
  "about": "(FEBS Open Bio, 2013)",
  "design_in_all_cases": "species or system Scherffelia dubia",
  "key": {"[1]": {"tested_on": "C-SdCen F109L", "test": "ITC binding of target peptides to C-SdCen F109L", "settings": "for factor of increase in change in enthalpy (ΔH) / factor of reduction of binding constant by F109L: EDTA; for TΔS / ΔG: F109L, no Ca2+ (EDTA 2 mM), pH 7.5; for TΔS: from ΔG = ΔH − TΔS; for ΔG: ΔG = −RTln(1/Ka); for ΔΔH: difference in binding enthalpy SdCen wt vs F109L; for ΔΔH / ΔΔG: EDTA 2 mM; for ΔΔG: difference in free energy SdCen wt vs F109L"}, "[2]": {"tested_on": "C-SdCen F109L-E144A", "test": "ITC binding of target peptides to C-SdCen F109L-E144A", "settings": "for TΔS: from ΔG = ΔH − TΔS; for ΔΔH: difference in binding enthalpy SdCen wt vs F109L-E144A; for ΔΔH / ΔΔG: EDTA 2 mM; for ΔΔG: difference in free energy SdCen wt vs F109L-E144A"}, "[3]": {"tested_on": "C-SdCen E144A", "test": "ITC binding of target peptides to C-SdCen E144A", "settings": "for effect of E144A mutation on binding (in words): E144A vs WT; for TΔS: from ΔG = ΔH − TΔS; for ΔΔH: difference in binding enthalpy SdCen wt vs E144A"}, "[4]": {"tested_on": "C-SdCen WT (C-terminal domain M93-F168 of SdCen)", "test": "ITC binding of target peptides to wild-type C-SdCen", "settings": "WT; for TΔS: from ΔG = ΔH − TΔS; for effect of calcium on binding (in words): presence vs absence of calcium"}, "[5]": {"settings": "EDTA, 30 °C to 37 °C, becoming more negative"}},
  "note": "“Also recorded” adds a separate entry of the source.",
  "data": [
    {"substance": "677-SQHNRQLLRGALRRWK-692 [R18-Sfi1]", "values": [
      {"measurement": "effect of F109L mutation on binding (in words)", "setting": "[1]; F109L vs WT", "result": "reduced the binding; also recorded: decreased the binding"},
      {"measurement": "factor of increase in change in enthalpy (ΔH)", "setting": "[1]; F109L vs WT, 30 °C", "result": 1.4},
      {"measurement": "factor of reduction of binding constant by F109L", "setting": "[1]; F109L vs WT, 30 °C", "result": 6},
      {"measurement": "factor of increase in change in enthalpy (ΔH)", "setting": "[1]; F109L vs WT, 37 °C", "result": 1.4},
      {"measurement": "factor of reduction of binding constant by F109L", "setting": "[1]; F109L vs WT, 37 °C", "result": 6},
      {"measurement": "factor of decrease in Ka by F109L", "setting": "[1]; F109L vs WT, temperature not stated", "result": 6},
      {"measurement": "TΔS", "setting": "[1]; 30 °C", "result": -14.96, "unit": "kcal/mol"},
      {"measurement": "ΔG", "setting": "[1]; 30 °C", "result": -8.24, "unit": "kcal/mol"},
      {"measurement": "TΔS", "setting": "[1]; 37 °C", "result": -22.3, "unit": "kcal/mol"},
      {"measurement": "ΔG", "setting": "[1]; 37 °C", "result": -8.1, "unit": "kcal/mol"},
      {"measurement": "ΔΔH", "setting": "[1]; 30 °C", "result": -8.3, "unit": "kcal/mol"},
      {"measurement": "ΔΔH", "setting": "[1]; 37 °C", "result": -6.69, "unit": "kcal/mol"},
      {"measurement": "ΔΔG", "setting": "[1]; 30 °C", "result": -1.02, "unit": "kcal/mol"},
      {"measurement": "ΔΔG", "setting": "[1]; 37 °C", "result": -1.21, "unit": "kcal/mol"},
      {"measurement": "effect of F109L-E144A mutation on binding (in words)", "setting": "[2]; F109L-E144A vs WT and single mutants", "result": "exhibited the same behavior as wild-type SdCen at both temperatures"},
      {"measurement": "TΔS", "setting": "[2]; F109L-E144A, 30 °C, no Ca2+ (EDTA 2 mM), pH 7.5", "result": -16.33, "unit": "kcal/mol"},
      {"measurement": "ΔG", "setting": "[2]; F109L-E144A, 30 °C, no Ca2+ (EDTA 2 mM), pH 7.5, ΔG = −RTln(1/Ka)", "result": -8.07, "unit": "kcal/mol"},
      {"measurement": "TΔS", "setting": "[2]; F109L-E144A, 37 °C, no Ca2+ (EDTA 2 mM), pH 7.5", "result": -18.24, "unit": "kcal/mol"},
      {"measurement": "ΔΔH", "setting": "[2]; 30 °C", "result": -7.1, "unit": "kcal/mol"},
      {"measurement": "ΔΔH", "setting": "[2]; 37 °C", "result": -10.66, "unit": "kcal/mol"},
      {"measurement": "ΔΔG", "setting": "[2]; 30 °C", "result": -1.19, "unit": "kcal/mol"},
      {"measurement": "ΔΔG", "setting": "[2]; 37 °C", "result": -1.12, "unit": "kcal/mol"},
      {"measurement": "effect of E144A mutation on binding (in words)", "setting": "[3]", "result": "no effect on the binding of C-SdCen to R18-Sfi1"},
      {"measurement": "effect of E144A mutation on binding (in words)", "setting": "[3]; listed as Sfi1", "result": "had no effect on Sfi1 binding"},
      {"measurement": "TΔS", "setting": "[3]; E144A, 30 °C, no Ca2+ (EDTA 2 mM), pH 7.5", "result": -21.06, "unit": "kcal/mol"},
      {"measurement": "ΔG", "setting": "[3]; E144A, 30 °C, no Ca2+ (EDTA 2 mM), pH 7.5, ΔG = −RTln(1/Ka)", "result": -9.25, "unit": "kcal/mol"},
      {"measurement": "TΔS", "setting": "[3]; E144A, 37 °C, no Ca2+ (EDTA 2 mM), pH 7.5", "result": -26.88, "unit": "kcal/mol"},
      {"measurement": "ΔΔH", "setting": "[3]; 30 °C, EDTA 2 mM", "result": -1.19, "unit": "kcal/mol"},
      {"measurement": "ΔΔH", "setting": "[3]; 37 °C, EDTA 2 mM", "result": -0.87, "unit": "kcal/mol"},
      {"measurement": "ΔΔG", "setting": "[3]; difference in free energy SdCen wt vs E144A, 30 °C, EDTA 2 mM", "result": -0.01, "unit": "kcal/mol"},
      {"measurement": "effect of temperature increase (in words)", "setting": "[4]; 30 °C to 37 °C, XPC vs Sfi1", "result": "a more pronounced effect on Sfi1"},
      {"measurement": "TΔS", "setting": "[4]; 30 °C, no Ca2+ (EDTA 2 mM), pH 7.5", "result": -22.24, "unit": "kcal/mol"},
      {"measurement": "ΔG", "setting": "[4]; 30 °C, no Ca2+ (EDTA 2 mM), pH 7.5, ΔG = −RTln(1/Ka)", "result": -9.26, "unit": "kcal/mol"},
      {"measurement": "TΔS", "setting": "[4]; 37 °C, no Ca2+ (EDTA 2 mM), pH 7.5", "result": -27.78, "unit": "kcal/mol"},
      {"measurement": "factor of decrease in binding on temperature increase", "setting": "[4]; EDTA, 30 °C to 37 °C", "result": 4},
      {"measurement": "factor of decrease in TΔS on temperature increase", "setting": "[4]; [5]", "result": 1.3},
      {"measurement": "factor of decrease in ΔH on temperature increase", "setting": "[4]; [5]", "result": 1.2},
      {"measurement": "effect of calcium on binding (in words)", "setting": "[4]", "result": "the presence of calcium enhanced the binding"},
      {"measurement": "effect of calcium on binding (in words)", "setting": "[4]; listed as Sfi1", "result": "Calcium was not required for binding although its presence enhanced the binding"}
    ]}
  ]
}
